From US5625056A, “Derivatives of cyclic guanosine-3',5'-monophosphorothioate” (BIOLOG Life Science Institute, priority 1992, dated 1997)

Columns and labels:
[1] = biological target: T1, cGMP-dependent protein kinases (Bos taurus, UniProt P00516); experiment: Inhibition/activation of cGMP-dependent protein kinase (cGK); type: biochemical, bovine
T1 construct: Isolation of cGK I from bovine lung; from tissue; host or cells: bovine lung
T1 sequence (P00516 2-671 limits assumed): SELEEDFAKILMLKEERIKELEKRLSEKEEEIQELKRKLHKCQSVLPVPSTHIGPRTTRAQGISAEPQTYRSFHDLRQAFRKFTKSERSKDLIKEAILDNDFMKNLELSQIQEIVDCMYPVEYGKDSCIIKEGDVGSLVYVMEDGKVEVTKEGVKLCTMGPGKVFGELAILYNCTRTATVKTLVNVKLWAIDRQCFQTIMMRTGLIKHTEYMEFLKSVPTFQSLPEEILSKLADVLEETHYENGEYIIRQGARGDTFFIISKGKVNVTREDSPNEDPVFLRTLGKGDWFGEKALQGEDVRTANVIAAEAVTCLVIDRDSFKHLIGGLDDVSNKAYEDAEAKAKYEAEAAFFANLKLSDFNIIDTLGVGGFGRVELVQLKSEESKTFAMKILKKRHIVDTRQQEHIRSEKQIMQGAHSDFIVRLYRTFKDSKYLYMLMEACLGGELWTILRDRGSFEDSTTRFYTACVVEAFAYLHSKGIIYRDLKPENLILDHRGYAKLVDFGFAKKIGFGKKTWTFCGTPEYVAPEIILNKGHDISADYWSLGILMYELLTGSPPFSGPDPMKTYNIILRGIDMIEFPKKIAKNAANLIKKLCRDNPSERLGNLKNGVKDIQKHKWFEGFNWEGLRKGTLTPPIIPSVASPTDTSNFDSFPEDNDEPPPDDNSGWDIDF
Description: (§1) Isolation of cGK I from bovine lung and of cAK II from bovine heart is performed as has been already published (Walter et al., J. Biol. Chem., 255, 3757-3762 (1980)). Protein kinase activity is determined according to the method of Roskoski (Methods Enzymol., 99, 3-6 (1983)). In vitro data on membranes of human thrombocytes are obtained as has already been described by Halbrugge et al. (Eur. J. Biochem., 185, 41-50, (1989)).

[2] = system: cGMP-dependent phosphorylation of three proteins of the masses 46, 50 and 130 kDa; experiment: cGMP-dependent phosphorylation of three proteins of 46, 50 and 130 kDa
[3] = system: cGMP signal transduction pathway; experiment: Selective block of the cGMP signal transduction pathway; settings: selectivity over cAMP-mediated effects
[4] = system: phosphorylation of a 46/50 kDa-band in membranes of human thrombocytes; experiment: cGMP-modulated phosphorylation of a 46/50 kDa band in membranes of human thrombocytes; type: biochemical
Description: as §1
(§2) Compounds with extraordinary good membrane permeability are tested in vivo with intact human thrombocytes according to Halbrugge et al. CJ. Biol. Chem., 265, 3088-3093 (1990)).

physchem = settings: reversed-phase hplc
perfused aorta muscle = experiment: SIN 1-stimulated relaxation in perfused aorta muscle
[5] = system: cGMP-inhibited phosphodieserases (cGI-PDE); experiment: Inhibition of cGMP-inhibited phosphodiesterases (cGI-PDE); type: biochemical
[6] = Cell membrane permeability; type: in vitro ADME
cGK I = biological target: T2, cGK I (Bos taurus, UniProt P00516); experiment: Inhibition of isolated cGK I; type: biochemical, bovine
T2 construct: Isolation of cGK I from bovine lung; from tissue; host or cells: bovine lung
T2 sequence (P00516 1-671): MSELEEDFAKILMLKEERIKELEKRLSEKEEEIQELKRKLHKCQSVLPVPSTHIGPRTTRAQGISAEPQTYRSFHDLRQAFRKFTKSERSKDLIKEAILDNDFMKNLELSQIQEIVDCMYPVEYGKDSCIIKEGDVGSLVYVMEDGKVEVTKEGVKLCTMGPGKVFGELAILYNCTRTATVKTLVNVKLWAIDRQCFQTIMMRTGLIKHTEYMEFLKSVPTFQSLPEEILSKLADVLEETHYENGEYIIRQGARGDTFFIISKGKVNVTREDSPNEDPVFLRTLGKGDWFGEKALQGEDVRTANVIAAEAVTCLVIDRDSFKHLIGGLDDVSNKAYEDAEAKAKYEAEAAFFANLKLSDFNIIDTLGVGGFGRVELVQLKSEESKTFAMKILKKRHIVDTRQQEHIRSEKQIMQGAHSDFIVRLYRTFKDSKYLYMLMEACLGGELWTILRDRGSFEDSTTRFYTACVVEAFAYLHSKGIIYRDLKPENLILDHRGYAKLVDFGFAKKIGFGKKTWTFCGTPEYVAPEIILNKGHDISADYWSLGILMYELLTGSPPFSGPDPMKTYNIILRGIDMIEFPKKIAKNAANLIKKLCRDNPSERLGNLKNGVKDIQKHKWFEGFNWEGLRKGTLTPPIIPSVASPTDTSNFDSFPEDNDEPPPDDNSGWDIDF
Description: as §1

[7] = system: cAMP-dependent phosphorylation of a 22- and a 240 kDa-band; experiment: cAMP-dependent phosphorylation of 22 and 240 kDa bands in membranes of human thrombocytes; type: biochemical
Description: as §1, §2

[8] = system: cGMP-dependent phosphorylation in intact human thrombocytes; experiment: cGMP-dependent phosphorylation in intact human thrombocytes (in vivo); type: cell-based
Description: as §2

cAK II = biological target: T3, cAK II (Bos taurus, UniProt P00515); experiment: Activation of cAK II; type: biochemical, bovine; settings: at high concentrations
T3 construct: of cAK II from bovine heart; from tissue; host or cells: bovine heart
Description: as §1

[9] = system: cAMP-dependent protein kinases type I (cAK I); settings: Botelho et al. 1988; cited from earlier work
cAK = settings: cited from earlier work
[10] = system: cAMP-dependent protein kinases type II (cAK II); settings: Botelho et al. 1988; cited from earlier work
[11] = biological target: T1, cGMP-dependent protein kinases; settings: background literature (Butt et al. 1990); cited from earlier work
[12] = reversed-phase HPLC; has been reported; cited from earlier work

T3 sequence (P00515 2-401 limits assumed): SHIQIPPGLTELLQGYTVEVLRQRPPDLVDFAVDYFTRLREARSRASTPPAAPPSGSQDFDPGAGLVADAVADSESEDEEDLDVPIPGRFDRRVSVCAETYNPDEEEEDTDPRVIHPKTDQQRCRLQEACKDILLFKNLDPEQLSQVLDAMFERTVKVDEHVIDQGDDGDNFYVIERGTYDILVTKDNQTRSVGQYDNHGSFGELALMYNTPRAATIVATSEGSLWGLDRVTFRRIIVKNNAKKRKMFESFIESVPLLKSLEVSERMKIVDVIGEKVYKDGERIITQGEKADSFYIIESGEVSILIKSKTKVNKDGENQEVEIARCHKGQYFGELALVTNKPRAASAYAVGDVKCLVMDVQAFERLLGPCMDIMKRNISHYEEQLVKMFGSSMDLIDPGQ

Q: For `O=c1c2nc(Br)n([C@@H]3O[C@@H]4CO[P@@](O)(=S)O[C@H]4[C@H]3O)c2nc2[nH]c(-c3ccccc3)cn12` [RP -8-Br-PET-cGMPS, Cyclic β-phenyl-1,N^2-etheno-8-bromoguanosine-3',5'-monophosphorothioate, RP -diastereomer], which “type of inhibition of cGMP-dependent protein kinases” value [1] is on record?
A: competitive inhibitor

Q: What about the Ki ([1]; cGMP-dependent protein kinases, competitive inhibitor, read-out: inhibition constant Ki) of the same compound?
A: 30 nM

Q: What about the “cGMP-dependent phosphorylation of three proteins” value [2] of the same compound?
A: inhibited

Q: And the “block of cGMP signal transduction pathway” value [3]?
A: blocks selectively the cGMP signal transduction pathway without affecting cAMP-mediated effects

Q: And the “effectivity at thrombocyte membranes, factor over RP -8-pCPT-cGMPS” value ([4]; thrombocyte membranes, relative to RP -8-pCPT-cGMPS)?
A: 5-10

Q: What about the chromatographic logP (physchem) of the same compound?
A: 3.22

Q: What about the “SIN 1-stimulated relaxation” value (perfused aorta muscle) of the same compound?
A: inhibited

Q: For `Nc1nc2c(nc(Sc3ccc(Cl)cc3)n2[C@@H]2O[C@@H]3CO[P@@](O)(=S)O[C@H]3[C@H]2O)c(=O)[nH]1` [RP -8-pCPT-cGMPS, Cyclic 8-(4-chlorophenylthio)-guanosine-3',5'-monophosphorothioate, RP -diastereomer], which “inhibition of cGI-PDE” value [5] is on record?
A: poor inhibitor

Q: What about the cell membrane permeability [6] of the same compound?
A: excellent cell membrane permeability

Q: What about the “type of inhibition of isolated cGK I” value (cGK I; isolated cGK I) of the same compound?
A: competitive inhibitor

Q: What about the Ki (cGK I; read-out: inhibition constant Ki) of the same compound?
A: 700 nM

Q: And the “cAMP-dependent phosphorylation of a 22- and a 240 kDa-band” value [7]?
A: not disturbed

Q: And the “cGMP-dependent (cGMP-mediated) phosphorylation” value [8]?
A: inhibits the cGMP-dependent phosphorylation even in intact human thrombocytes

Q: What about the “phosphorylation of a 46/50 kDa-band” value ([4]; membranes of human thrombocytes) of the same compound?
A: inhibits the phosphorylation

Q: What about the chromatographic logP (physchem) of the same compound?
A: 2.82

Q: And the “agonism for cAK II” value (cAK II)?
A: weakly partial agonist

Q: For `O=c1c2ncn([C@@H]3O[C@@H]4CO[P@@](O)(=S)O[C@H]4[C@H]3O)c2[nH]c2nc(-c3ccccc3)cn12` [RP -PET-cGMPS, Cyclic β-phenyl-1,N^2-ethenoguanosine-3',5'-monophosphorothioate, RP -diastereomer], which chromatographic logP (physchem) is on record?
A: 2.81

Q: What does the source list for `Nc1ncnc2c1ncn2[C@@H]1O[C@@H]2CO[P@@](O)(=S)O[C@H]2[C@H]1O` [RP -cAMPS, adenosine-3',5'-monophosphorothioate]?
A: inhibition of cAK I [9]: competitive inhibitor; cAMP antagonism (cAK; Botelho et al. 1988): antagonist of cAMP; inhibition of cAK II [10]: competitive inhibitor

Q: For `Nc1nc2c(ncn2[C@@H]2O[C@@H]3CO[P@@](O)(=S)O[C@H]3[C@H]2O)c(=O)[nH]1` [RP -cGMPS, RP -Guanosine-3',5'-monophosphorothioate], which “inhibitory properties / specificity for cGK” value [11] is on record?
A: lacks the required specificity for cGMP-dependent protein kinase (cGK)

Q: What about the “inhibition/agonism of cAK” value (cAK; background literature) of the same compound?
A: inhibits cAK as well

Q: Which “activation of isolated cGK” value ([1]; isolated cGK) does the source give for `Nc1nc2c(nc(Sc3ccc(Cl)cc3)n2[C@@H]2O[C@@H]3CO[P@](O)(=S)O[C@H]3[C@H]2O)c(=O)[nH]1` [SP -8-pCPT-cGMPS, Cyclic 8-(4-chlorophenylthio)-guanosine-3',5'-monophosphorothioate, SP -diastereomer] here?
A: activator

Q: What about the “cGMP-dependent (cGMP-mediated) phosphorylation” value [8] of the same compound?
A: activator

Q: What about the chromatographic logP (physchem) of the same compound?
A: 2.84

Q: For `O=c1c2ncn([C@@H]3O[C@@H]4CO[P@](O)(=S)O[C@H]4[C@H]3O)c2[nH]c2nc(-c3ccccc3)cn12` [SP -PET-cGMPS, Cyclic β-phenyl-1,N^2-ethenoguanosine-3',5'-monophosphorothioate, SP -diastereomer], which chromatographic logP (physchem) is on record?
A: 2.83

Q: Which results are given for `Nc1nc2c(ncn2[C@@H]2O[C@@H]3COP(=O)(O)O[C@H]3[C@H]2O)c(=O)[nH]1` [cGMP, guanosine-3',5'-monophosphate, reference compound]?
A: chromatographic logP (physchem): 0.77; log KW [12]: 0.85
